As a reminder, the Ki is a measure of affinity in units of concentration, obtained from inhibition or displacement.

Results on 39 compounds are retold here after article PMC8620791, “Inhibitory Effects of Sulfonamide Derivatives on the β-Carbonic Anhydrase (MpaCA) from Malassezia pachydermatis, a Commensal, Pathogenic Fungus Present in Domestic Animals” (International Journal of Molecular Sciences, 2021).

For experiment [1], the target named is T1, β-CA (MpaCA) from Malassezia pachydermatis (Malassezia pachydermatis, UniProt A0A0M8MPA4).
T1 sequence (A0A0M8MPA4 1-242): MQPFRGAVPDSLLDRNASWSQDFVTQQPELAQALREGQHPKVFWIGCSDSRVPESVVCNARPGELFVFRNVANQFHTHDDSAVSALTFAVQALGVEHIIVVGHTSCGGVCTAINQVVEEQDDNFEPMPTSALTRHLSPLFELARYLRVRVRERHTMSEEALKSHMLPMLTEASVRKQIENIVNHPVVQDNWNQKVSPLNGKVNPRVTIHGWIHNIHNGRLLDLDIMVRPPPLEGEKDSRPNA
In words: biochemical. The settings on record: recombinant enzyme, stopped-flow CO2 hydration, mean from three assays, errors ±5–10%, 15 min preincubation.
Method: An applied photophysics stopped-flow instrument was used for assaying the CA-catalyzed CO2 hydration activity [49].
At least six measurements of the original 5–10% reaction were used to assess the initial velocity for each inhibitor. The uncatalyzed rates were identically determined and detracted from the total observed rates. Stock inhibitor solutions (10–100 mM) were prepared in distilled, deionized water, and dilutions up to 0.01 mM were performed with the buffer test. […] The inhibition constants, which represent the mean from at least three different determinations, were obtained by the non-linear least-squares methods using PRISM 6 and the Cheng–Prusoff equation, as reported earlier [50]. […] All salts/small molecules were of the highest purity available from Sigma-Aldrich (Milan, Italy).

The next experiment addresses MgCA. Also noted: method as in PMID 31963335. As to conditions: stopped-flow CO2 hydration; given for comparison; ref [26]; cited from earlier work.
For a further experiment, the target named is MreCA. Details: method as in PMID 31963335. As to conditions: stopped-flow CO2 hydration; given for comparison; ref [26]; cited from earlier work.

A value given as a limit tells only on which side of the number the result lay.

In the case of `CCN[C@H]1CN(CCCOC)S(=O)(=O)c2sc(S(N)(=O)=O)cc21` [BRZ, Brinzolamide, reference compound], the Ki in experiment [1] was 550 nM; on MgCA, over 10000 nM; on MreCA, 700 nM.
Regarding `NS(=O)(=O)c1nnc(NS(=O)(=O)c2ccccc2)s1` [BZA, Benzolamide, reference compound], the Ki in experiment [1] is 120 nM; on MreCA it was 7150 nM.
With `Cc1ccc(-c2cc(C(F)(F)F)nn2-c2ccc(S(N)(=O)=O)cc2)cc1` [CLX, Celecoxib, reference compound], the Ki in experiment [1] is 60 nM; on MgCA it was over 10000 nM; at MreCA it was 1400 nM.
For `NS(=O)(=O)c1cc(Cl)c(Cl)c(S(N)(=O)=O)c1` [DCP, Dichlorophenamide, reference compound], the Ki on MgCA was 340 nM; on MreCA, 3060 nM.
As for `NS(=O)(=O)NCCNc1nonc1C(=NO)Nc1ccc(F)c(Br)c1` [EPA, Epacadostat, reference compound], in experiment [1], the Ki worked out at 630 nM.
Take `NC(N)=Nc1nc(CSCCC(N)=NS(N)(=O)=O)cs1` [FAM, Famotidine, reference compound]: the Ki in experiment [1] was 4910 nM.
For `NS(=O)(=O)c1cc2c(cc1Cl)NCNS2(=O)=O` [HCT, Hydrochlorothiazide, reference compound], the Ki in experiment [1] was 260 nM; on MreCA it was 8500 nM.
For `NS(=O)(=O)c1ccc(S(=O)(=O)Nc2cccc3c(Cl)c[nH]c23)cc1` [IND, Indisulam E7070, reference compound], the Ki in experiment [1] was 4820 nM; on MreCA, under 1000 nM.
Consider `CC(=O)/N=c1/sc(S(N)(=O)=O)nn1C` [MZA, Methazolamide, reference compound], for which the Ki in experiment [1] is 1720 nM.
On to `O=C1NS(=O)(=O)c2ccccc21` [SAC, Saccharin, reference compound], for which the Ki in experiment [1] stood at 1030 nM.
As for `CCN1CCCC1CNC(=O)c1cc(S(N)(=O)=O)ccc1OC` (stereo not drawn) [SLP, Sulpiride, reference compound], the Ki at MreCA is 4850 nM.
For `NS(=O)(=O)c1ccc(N2CCCCS2(=O)=O)cc1` [SLT, Sulthiame, reference compound], the Ki in experiment [1] was 1880 nM; on MreCA it was 670 nM.
On to `CC1(C)O[C@@H]2[C@@H](CO[C@@]3(COS(N)(=O)=O)OC(C)(C)O[C@@H]23)O1` [TPM, Topiramate, reference compound], for which the inhibitory constant (Ki) is 480 nM in experiment [1], 1460 nM at MgCA and 3830 nM on MreCA.
On to `Cc1onc(-c2ccccc2)c1-c1ccc(S(N)(=O)=O)cc1` [VLX, Valdecoxib, reference compound], for which the Ki was 630 nM in experiment [1] and 770 nM at MreCA.
For `NS(=O)(=O)Cc1noc2ccccc12` [ZNS, Zonisamide, reference compound], in experiment [1], the Ki came to 2420 nM.
For the compound `Nc1cccc(S(N)(=O)=O)c1` [compound 1], the Ki in experiment [1] was determined as 1990 nM.
For the compound `Nc1ccc(S(N)(=O)=O)cc1` [compound 2], the Ki was 240 nM at MgCA and 4620 nM on MreCA.
`NS(=O)(=O)c1cccc(S(N)(=O)=O)c1` [compound 3]: the figures for the Ki (in experiment [1]; on MgCA; at MreCA) were 1500 nM, 150 nM and over 10000 nM, respectively.
Turning to `Cc1ccc(S(N)(=O)=O)cc1` [compound 4], the Ki in experiment [1] came out at 1090 nM.
Turning to `NCc1ccc(S(N)(=O)=O)cc1` [compound 5], the Ki in experiment [1] was 2180 nM; on MreCA, over 10000 nM.
`NCCc1ccc(S(N)(=O)=O)cc1` [compound 6]: the Ki at MreCA was over 10000 nM.
On to `Nc1ccc(S(N)(=O)=O)cc1F` [compound 7], for which the Ki in experiment [1] is 2480 nM; at MgCA, 110 nM; at MreCA, 4590 nM.
For `Nc1ccc(S(N)(=O)=O)cc1Cl` [compound 8], the values for the Ki (in experiment [1]; on MgCA; on MreCA) were 1680 nM, 120 nM and over 10000 nM, respectively.
Consider `Nc1ccc(S(N)(=O)=O)cc1Br` [compound 9], for which the results for the Ki on MgCA and on MreCA were 340 nM and over 10000 nM, respectively.
In the case of `NS(=O)(=O)c1cc(Cl)cc(Cl)c1O` [compound 10], the Ki in experiment [1] was 2010 nM; on MgCA, 540 nM; on MreCA it was over 10000 nM.
For the compound `Nc1cc(C(F)(F)F)c(S(N)(=O)=O)cc1S(N)(=O)=O` [compound 11], the Ki at MreCA was 6760 nM.
`Nc1cc(Cl)c(S(N)(=O)=O)cc1S(N)(=O)=O` [compound 12]: the Ki in experiment [1] was 2740 nM; on MreCA, over 10000 nM.
In the case of `Nc1nnc(S(N)(=O)=O)s1` [compound 13], the inhibition constant Ki in experiment [1] came out at 1090 nM.
Take `Cn1nc(S(N)(=O)=O)sc1=N` [compound 14]: the Ki in experiment [1] is 580 nM; at MgCA, over 10000 nM; on MreCA, over 10000 nM.
On to `NS(=O)(=O)c1ccc(O)cc1` [compound 15], for which the Ki is 610 nM in experiment [1], 230 nM on MgCA and over 10000 nM at MreCA.
As for `NS(=O)(=O)c1ccc(CO)cc1` [compound 16], the Ki was 1060 nM in experiment [1], 100 nM on MgCA and 6510 nM on MreCA.
Regarding `NS(=O)(=O)c1ccc(CCO)cc1` [compound 17], the Ki was 60 nM at MgCA and over 10000 nM at MreCA.
With `NS(=O)(=O)c1ccc(C(=O)O)cc1` [compound 18], the Ki at MgCA is 60 nM; at MreCA, over 10000 nM.
Regarding `Nc1nccc(Nc2ccc(S(N)(=O)=O)cc2)n1` [compound 19], the Ki in experiment [1] is 590 nM; at MgCA, over 10000 nM; at MreCA it was 7790 nM.
In the case of `Nc1ccc(S(=O)(=O)Nc2nnc(S(N)(=O)=O)s2)cc1` [compound 20], the Ki is 610 nM in experiment [1], 230 nM on MgCA and 910 nM on MreCA.
Consider `NS(=O)(=O)c1ccc(CCNS(=O)(=O)c2ccc([N+](=O)[O-])cc2CO)cc1` [compound 21], for which the Ki in experiment [1] was 270 nM; on MgCA, 110 nM; on MreCA, 7400 nM.
Consider `Nc1ccc(S(=O)(=O)Nc2ccc(S(N)(=O)=O)cc2)cc1` [compound 22], for which the Ki in experiment [1] is 1370 nM; at MgCA, 90 nM; on MreCA, 3740 nM.
On to `Nc1ccc(S(=O)(=O)NCc2ccc(S(N)(=O)=O)cc2)cc1` [compound 23], for which the results for the Ki (in experiment [1]; at MgCA; on MreCA) were 260 nM, over 10000 nM and over 10000 nM, respectively.
For `Nc1ccc(S(=O)(=O)NCCc2ccc(S(N)(=O)=O)cc2)cc1` [compound 24], the Ki in experiment [1] was 1270 nM.
